Assay results: US12291518B2, “Thyroid hormone receptor agonists and use thereof” (Eccogene Inc., priority 2020, dated 2025)
Where two headings read alike, the source gives them in different places.

Tests used:
THR alpha-LBD = target: T1, THR alpha-LBD (Homo sapiens, UniProt P10827); assay: THR-α Coactivator Peptide Recruitment Assay (LanthaScreen TR-FRET); type: biochemical
T1 construct: except that THR alpha-LBD of a final concentration 0.25 nM was used; purchased Invitrogen PV4687
How it was run: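 TR-FRET coactivator recruitment with THR alpha-LBD at 0.25 nM final, Fluorescein-SRC2-2 peptide 0.1 nM and Tb-labeled anti-GST antibody 2 nM; 2 h incubation at room temperature. 520/495 nm emission ratio fitted to a four-parameter sigmoidal curve to give EC50.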

THR beta-LBD = target: T2, THR beta-LBD (Homo sapiens, UniProt P10828); assay: THR-β Coactivator Peptide Recruitment Assay (LanthaScreen TR-FRET); type: biochemical
T2 construct: THR beta-LBD (the final concentration is 0.5 nM) was added to the 384-well assay plate; purchased Invitrogen PV4686
T2 sequence (P10828 217-461 limits assumed): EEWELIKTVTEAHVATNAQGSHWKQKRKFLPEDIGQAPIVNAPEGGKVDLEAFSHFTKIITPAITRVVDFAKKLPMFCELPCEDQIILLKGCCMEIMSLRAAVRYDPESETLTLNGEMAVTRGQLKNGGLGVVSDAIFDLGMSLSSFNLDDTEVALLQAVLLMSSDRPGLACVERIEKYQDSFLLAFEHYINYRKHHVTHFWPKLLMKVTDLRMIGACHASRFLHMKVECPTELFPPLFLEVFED
How it was run: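 GST-tagged THR beta-LBD (0.5 nM) with test compound recruits fluorescein-SRC2-2 coactivator peptide (0.1 nM), detected with Tb-anti-GST antibody (2 nM).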

[1] = TR-FRET coactivator recruitment, THR alpha-LBD 0.25 nM
[2] = TR-FRET coactivator recruitment, THR alpha-LBD 0.25 nM, read-out: THRα EC50
[3] = TR-FRET coactivator recruitment, THR beta-LBD 0.5 nM
[4] = TR-FRET coactivator recruitment, THR beta-LBD 0.5 nM, read-out: THRβ EC50

T1 sequence (P10827 163-410 isoform P10827-2 limits assumed, other chains not shown): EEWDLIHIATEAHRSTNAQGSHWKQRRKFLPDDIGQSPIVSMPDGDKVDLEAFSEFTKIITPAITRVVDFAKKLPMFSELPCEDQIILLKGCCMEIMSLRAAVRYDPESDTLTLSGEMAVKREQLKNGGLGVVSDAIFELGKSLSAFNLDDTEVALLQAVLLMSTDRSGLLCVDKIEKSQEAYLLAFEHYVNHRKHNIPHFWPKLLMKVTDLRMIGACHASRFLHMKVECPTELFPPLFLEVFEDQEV

THRα Emax (THR alpha-LBD; [1]) | EC50 (THR alpha-LBD; [2]) [nM] | THRβ Emax (THR beta-LBD; [3]) | EC50 (THR beta-LBD; [4]) [nM] | SMILES | EC50 (THR alpha-LBD) [nM] | EC50 (THR beta-LBD) [nM]
B (40~85) | 2 to 200 | C (<75) | 2 to 20 | O=c1[nH]c(=O)n(-c2cc(Cl)c(Oc3ccc(O)c(S(=O)(=O)N[C@@H]4CC[C@H](O)C4)c3)c(Cl)c2)nc1C(F)F [Compound 66, 5-(2,6-dichloro-4-(6-(difluoromethyl)-3,5-dioxo-4,5-dihydro-1,2,4-triazin-2(3H)-yl)phenoxy)-2-hydroxy-N-((1R,3S)-3-hydroxycyclopentyl)benzenesulfonamide] |  | 
B (40~85) | 2 to 200 | B (75~90) | 2 to 20 | O=c1[nH]c(=O)n(-c2cc(Cl)c(Oc3ccc(O)c(S(=O)(=O)N[C@H]4CC[C@@H](O)C4)c3)c(Cl)c2)nc1C(F)F [Compound 67, 5-(2,6-dichloro-4-(6-(difluoromethyl)-3,5-dioxo-4,5-dihydro-1,2,4-triazin-2(3H)-yl)phenoxy)-2-hydroxy-N-((1S,3R)-3-hydroxycyclopentyl)benzenesulfonamide] |  | 
A (85~110) | 2 to 200 | B (75~90) | 2 to 20 | NS(=O)(=O)c1cc(Oc2c(Cl)cc(-n3nc(C(F)F)c(=O)[nH]c3=O)cc2Cl)ccc1O [Compound 68, 5-[2,6-dichloro-4-[6-(difluoromethyl)-3,5-dioxo-1,2,4-triazin-2-yl]phenoxy]-2-hydroxy-benzene sulfonamide] |  | 
B (40~85) | 2 to 200 | B (75~90) | 2 to 20 | O=c1[nH]c(=O)n(-c2cc(Cl)c(Oc3ccc(O)c(S(=O)(=O)NC4(CO)CC4)c3)c(Cl)c2)nc1C(F)F [Compound 70, 5-(2,6-dichloro-4-(6-(difluoromethyl)-3,5-dioxo-4,5-dihydro-1,2,4-triazin-2(3H)-yl)phenoxy)-2-hydroxy-N-(1-(hydroxymethyl)cyclopropyl)benzenesulfonamide] |  | 
A (85~110) | 2 to 200 | B (75~90) | < 2 | O=c1[nH]c(=O)n(-c2cc(Cl)c(Oc3ccc(O)c(S(=O)(=O)N4CC[C@@H](O)C4)c3)c(Cl)c2)nc1C(F)F [Compound 76, (R)-2-(3,5-dichloro-4-(4-hydroxy-3-((3-hydroxypyrrolidin-1-yl)sulfonyl)phenoxy)phenyl)-6-(difluoromethyl)-1,2,4-triazine-3,5(2H,4H)-dione] |  | 
A (85~110) | 2 to 200 | B (75~90) | < 2 | O=c1[nH]c(=O)n(-c2cc(Cl)c(Oc3ccc(O)c(S(=O)(=O)N4CC[C@H](O)C4)c3)c(Cl)c2)nc1C(F)F [Compound 77, (S)-2-(3,5-dichloro-4-(4-hydroxy-3-((3-hydroxypyrrolidin-1-yl)sulfonyl)phenoxy)phenyl)-6-(difluoromethyl)-1,2,4-triazine-3,5(2H,4H)-dione] |  | 
A (85~110) | 2 to 200 | A (90~110) | 2 to 20 | O=c1[nH]c(=O)n(-c2cc(Cl)c(Oc3ccc(O)c(S(=O)(=O)NCC4(O)CC4)c3)c(Cl)c2)nc1C(F)F [Compound 80, 5-(2,6-dichloro-4-(6-(difluoromethyl)-3,5-dioxo-4,5-dihydro-1,2,4-triazin-2(3H)-yl)phenoxy)-2-hydroxy-N-((1-hydroxycyclopropyl)methyl)benzenesulfonamide] |  | 

Second part, the compound before the results:

SMILES | THRα Emax (THR alpha-LBD; [1]) | EC50 (THR alpha-LBD; [2]) [nM] | THRβ Emax (THR beta-LBD; [3]) | EC50 (THR beta-LBD; [4]) [nM] | EC50 (THR alpha-LBD) [nM] | EC50 (THR beta-LBD) [nM]
O=c1[nH]c(=O)n(-c2cc(Cl)c(Oc3cnc(O)c(S(=O)(=O)NC4CCC4)c3)c(Cl)c2)nc1C(F)F [Compound 64, N-cyclobutyl-5-[2,6-dichloro-4-[6-(difluoromethyl)-3,5-dioxo-1,2,4-triazin-2-yl]phenoxy]-2-hydroxy-pyridine-3-sulfonamide] | C (<40) | > 1000 | B (75~90) | > 100 |  | 
COCCNS(=O)(=O)c1cc(Oc2c(Cl)cc(-n3nc(C(F)F)c(=O)[nH]c3=O)cc2Cl)ccc1O [Compound 65, 5-[2,6-dichloro-4-[6-(difluoromethyl)-3,5-dioxo-1,2,4-triazin-2-yl]phenoxy]-2-hydroxy-N-(2-methoxyethyl) benzenesulfonamide] | B (40~85) | 2 to 200 | B (75~90) | < 2 |  | 
N#C[C@H]1C[C@@H](NS(=O)(=O)c2cc(Oc3c(Cl)cc(-n4nc(C(F)F)c(=O)[nH]c4=O)cc3Cl)ccc2O)C1 [Compound 69, N-((1s,3s)-3-cyanocyclobutyl)-5-(2,6-dichloro-4-(6-(difluoromethyl)-3,5-dioxo-4,5-dihydro-1,2,4-triazin-2(3H)-yl)phenoxy)-2-hydroxybenzenesulfonamide] | A (85~110) | 2 to 200 | A (90~110) | < 2 |  | 
O=C(NC1CC1)C1(NS(=O)(=O)c2cc(Oc3c(Cl)cc(-n4nc(C(F)F)c(=O)[nH]c4=O)cc3Cl)ccc2O)CC1 [Compound 71, N-cyclopropyl-1-[[5-[2,6-dichloro-4-[6-(difluoromethyl)-3,5-dioxo-1,2,4-triazin-2-yl]phenoxy]-2-hydroxy-phenyl]sulfonylamino] cyclopropane carboxamide] | B (40~85) | 2 to 200 | A (90~110) | 2 to 20 |  | 
CS(=O)(=O)NC1CN(S(=O)(=O)c2cc(Oc3c(Cl)cc(-n4nc(C(F)F)c(=O)[nH]c4=O)cc3Cl)ccc2O)C1 [Compound 73, N-[l-[5-[2,6-dichloro-4-[6-(difluoromethyl)-3,5-dioxo-1,2,4-triazin-2-yl]phenoxy]-2-hydroxy-phenyl]sulfonylazetidin-3-yl] methane sulfonamide] | B (40~85) | 2 to 200 | C (<75) | 2 to 20 |  | 
O=c1[nH]c(=O)n(-c2cc(Cl)c(Oc3ccc(O)c(S(=O)(=O)NC4CC5(CC(O)C5)C4)c3)c(Cl)c2)nc1C(F)F (stereo not drawn) [Compound 74, 5-[2,6-dichloro-4-[6-(difluoromethyl)-3,5-dioxo-1,2,4-triazin-2-yl]phenoxy]-2-hydroxy-N-(2-hydroxyspiro [3.3]heptan-6-yl) benzene sulfonamide] | B (40~85) | 200 to 1000 | B (75~90) | 20 to 100 |  | 
O=C(N[C@H]1C[C@H](NS(=O)(=O)c2cc(Oc3c(Cl)cc(-n4nc(C(F)F)c(=O)[nH]c4=O)cc3Cl)ccc2O)C1)C1CC1 [Compound 78, N-[3-[[5-[2,6-dichloro-4-[6-(difluoromethyl)-3,5-dioxo-1,2,4-triazin-2-yl]-phenoxy]-2-hydroxy-phenyl]-sulfonylamino]-cyclobutyl]-cyclopropanecarboxamide] | B (40~85) |  | C (<75) |  | 200 to 1000 | 20 to 100
N#CC12CC(NS(=O)(=O)c3cc(Oc4c(Cl)cc(-n5nc(C(F)F)c(=O)[nH]c5=O)cc4Cl)ccc3O)(C1)C2 [Compound 79, N-(3-cyanobicyclo[1.1.1]pentan-1-yl)-5-(2,6-dichloro-4-(6-(difluoromethyl)-3,5-dioxo-4,5-dihydro-1,2,4-triazin-2 (3H)-yl)phenoxy)-2-hydroxybenzenesulfonamide] | A (85~110) | 2 to 200 | B (75~90) | < 2 |  | 
